Patent US4366149A, “Antitumor anthracycline glycosides, their preparation, intermediates therefor, and compositions and use thereof” (priority 1980, dated 1982)
Values after ≈ are worked out from the molar mass of the structure shown. Where two headings read alike, the source gives them in different places.

Assays:
HeLa cells = HeLa cells cloning efficiency in vitro; format: cell-based; details: for IC50: read-out: ID50 (HeLa cells cloning efficiency); for cytotoxicity on HeLa cells cloning efficiency, in words: in vitro, compared with daunorubicin
Description: Activity on HeLa cells cloning efficiency in vitro. Treatment for 24 hours

P388 ascitic leukemia = test: Activity against P388 ascitic leukemia in mice; format: in vivo; details: for activity against P388 leukemia, in words: preliminary test in mice
Excerpt: Activity against P388 ascitic leukemia. Treatment i.p. on day one after tumour inoculation.

[1] = Homo sapiens, HeLa, 24 h, read-out: % of controls (HeLa cells cloning efficiency)
[2] = 6 mg/kg i.p. on day one after tumour inoculation
[3] = 9 mg/kg i.p. on day one after tumour inoculation
[4] = 13.5 mg/kg i.p. on day one after tumour inoculation
[5] = 2.9 mg/kg i.p. on day one after tumour inoculation
[6] = 4.4 mg/kg i.p. on day one after tumour inoculation
[7] = 6.6 mg/kg i.p. on day one after tumour inoculation
[8] = 10 mg/kg i.p. on day one after tumour inoculation
[9] = 20 mg/kg i.p. on day one after tumour inoculation
[10] = 40 mg/kg i.p. on day one after tumour inoculation

Q: What does the source list for `COc1cccc2c1C(=O)c1c(O)c3c(c(O)c1C2=O)C[C@@](O)(C(C)=O)C[C@@H]3O[C@H]1C[C@H](N)[C@H](N)[C@H](C)O1` [XOO-O132 (I-A), 4'-amino-4'-deoxy-daunorubicin]?
A: activity at 0.0062 µg/mL (HeLa cells; [1]): 98%; activity at 0.025 µg/mL (HeLa cells; [1]): 70%; activity at 0.1 µg/mL (HeLa cells; [1]): 0%; IC50 (HeLa cells; Homo sapiens, HeLa, 24 h): 0.035 µg/mL (≈ 0.0665 µM); cytotoxicity on HeLa cells cloning efficiency, in words (HeLa cells): less cytotxic than daunorubicin; T/C % (P388 ascitic leukemia; [2]): 181%; Toxicity Deaths (P388 ascitic leukemia; [2]): 0/10; T/C % (P388 ascitic leukemia; [3]): 190%; Toxicity Deaths (P388 ascitic leukemia; [3]): 0/10; T/C % (P388 ascitic leukemia; [4]): 222%; Toxicity Deaths (P388 ascitic leukemia; [4]): 0/10; activity at the maximal dose tested, in words (P388 ascitic leukemia; P388 leukemia in mice, 13.5 mg/kg): highly active; toxicity, in words (P388 ascitic leukemia; P388 leukemia in mice, compared with daunorubicin): less toxic than daunorubicin; activity against P388 leukemia, in words (P388 ascitic leukemia; compared with daunorubicin): much more active daunorubicin

Q: For `COc1cccc2c1C(=O)c1c(O)c3c(c(O)c1C2=O)C[C@@](O)(C(C)=O)C[C@@H]3O[C@H]1C[C@H](N)[C@H](O)[C@H](C)O1` [Daunorubicin, daunorubicin, reference compound], which activity at 0.0031 µg/mL (HeLa cells; Homo sapiens, HeLa, dose 3.1 ng/ml, treatment for 24 hours, data of 2 experiments, read-out: % of controls (HeLa cells cloning efficiency)) is on record?
A: The activity at 0.0031 µg/mL was 88 to 98%.

Q: What about the activity at 0.0062 µg/mL (HeLa cells; Homo sapiens, HeLa, dose 6.2 ng/ml, treatment for 24 hours (daunorubicin: data of 2 experiments), read-out: % of controls (HeLa cells cloning efficiency)) of the same compound?
A: Its activity at 0.0062 µg/mL is 73 to 87%.

Q: And the IC50 (HeLa cells; Homo sapiens, HeLa, treatment for 24 hours (daunorubicin: data of 2 experiments))?
A: Its IC50 is 0.012 µg/mL (≈ 0.0227 µM).

Q: And the T/C % (P388 ascitic leukemia; [5])?
A: Its T/C % is 181%.

Q: And the “Toxicity Deaths” value (P388 ascitic leukemia; [5])?
A: Its value is 0/10.

Q: And the T/C % (P388 ascitic leukemia; [6])?
A: The T/C % was 140%.

Q: What about the “Toxicity Deaths” value (P388 ascitic leukemia; [6]) of the same compound?
A: Its value is 9/10.

Q: And the T/C % (P388 ascitic leukemia; [7])?
A: The T/C % was 118%.

Q: And the “Toxicity Deaths” value (P388 ascitic leukemia; [7])?
A: Its value is 10/10.

Q: Which results are given for `COc1cccc2c1C(=O)c1c(O)c3c(c(O)c1C2=O)C[C@@](O)(C(C)=O)C[C@@H]3O[C@H]1C[C@H](N)[C@@H](NC(=O)C(F)(F)F)[C@H](C)O1` [XOO-O136 (I-B), 4'-deoxy-4'-epi-trifluoroacetamido-daunorubicin]?
A: activity at 0.1 µg/mL (HeLa cells; [1]): 211%; activity at 0.4 µg/mL (HeLa cells; [1]): 21%; activity at 1.6 µg/mL (HeLa cells; [1]): 0%; IC50 (HeLa cells; Homo sapiens, HeLa, 24 h): 0.18 µg/mL (≈ 0.289 µM); cytotoxicity on HeLa cells cloning efficiency, in words (HeLa cells): less cytotxic than daunorubicin; T/C % (P388 ascitic leukemia; [8]): 145%; Toxicity Deaths (P388 ascitic leukemia; [8]): 0/10; T/C % (P388 ascitic leukemia; [9]): 154%; Toxicity Deaths (P388 ascitic leukemia; [9]): 0/10; T/C % (P388 ascitic leukemia; [10]): 163%; Toxicity Deaths (P388 ascitic leukemia; [10]): 2/10; activity against P388 leukemia, in words (P388 ascitic leukemia; compared with daunorubicin): much more active daunorubicin
